Test [1] can be described thus: Double cuvette-ISES (in situ enzymatic screening) of Co(III)-salen mediated HKR of (±)-propylene oxide. As to conditions: catalyst tested at 0.05 mol %; bilayer. The gist of the method: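 Co(III)-salen catalysts (0.25 mol %) in CHCl3 with (±)-propylene oxide (7.2 M in organic layer), overlaid with aqueous reporting layers in 50 mM sodium pyrophosphate, final pH 8.6. Reporters: 0.35 U HLADH/7.2 mM NAD+ ((S)-diol) or 0.35 U TBADH/2.2 mM NADP+ ((R)-diol). A340 increase gives enantioselectivity and relative rate estimates.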

Test [2] is described as follows: HKR of (±)-hexene oxide under neat conditions. Particulars: in 30 min, 2.0 mol % catalyst, 25° C. As to the method:
Co(III)-salen (acetate) catalysts were evaluated for HKR of (±)-hexene oxide, under neat conditions, similar to those described by Jacobsen and co-workers (Schaus, S. E.; Brandes, B. D.; Larrow, J. F.; Tokunaga, M.; Hansen, K. B.; Gould, A. E.; Furrow, M. E.; Jacobsen, E. N. J. Am. Chem. Soc. 2002, 124, 1307-1315). Reactions were stopped after 0.5 h, to obtain the enantiopurity of the 1,2-hexenediol produced at relatively early reaction times, for comparison with biphasic ISES predictions.
A typical procedure follows: To the Co(III)-salen catalyst derived from 1e (16.6 mg, 23.2 μmol, 2.0 mol %) at rt was added (±)-hexene oxide (116 mg, 1.16 mmols). The mixture was cooled to 0° C. Then water (11.4 μL, 0.64 mmols, 0.55 equiv.) was added and the flask was capped tightly and stirred 25° C. for 30 min. The progress of the reaction was estimated by ^1H NMR, the reaction mixture was cooled to 0° C., an aliquot was then withdrawn and dissolved in CDCl3 at 0° C. bath. After distilling over the unreacted epoxide, the diol product was collected, and then itself distilled again by Kugelrohr. When the reaction conversion was more than 50% in 30 min, 15 min reaction time was used (for catalyst 1e) to get the product diol.
To determine ee, the isolated diol was derivatized using p-bromobenzoyl imidazole (2.2 equiv.) in THF in the presence of NaH (4 equiv.) at rt for 5 min. […]

Test [3] can be described thus: HKR of (±)-propylene oxide under standard neat 'Jacobsen conditions' (NMR conversion, chiral HPLC ee). Particulars: + = (S), − = (R). In outline:
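Co(III)-salen catalyst (0.25 mol %) with neat (±)-propylene oxide and water (0.55 equiv.), added at 0° C., then stirred at room temperature, usually 3 h (longer if <5% conversion). Conversion by 1H NMR; diol isolated, derivatized to bis(p-bromobenzoate), ee by chiral HPLC.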

On to “N,N′-Bis(3′,5′-diiodosalicylidene)-[1R-(1α,2α,5α)]-2-amino-7,7-dimethyl-2-bicyclo[3.3.1]heptaneethanamine [Salen 1e]”, for which the “% ee of the 1,2-propanediol product, as predicted by double-cuvette ISES (upper number)” value in test [1] was “+47 % ee”. Moreover, the reaction conversion result in test [2] is recorded as “more than 50%”. Also, the “% ee (HPLC)” value in test [3] (loading 0.25 mol %, reaction stopped at the time given (mostly 3 h)) is “+28 (S) % ee”. The “% ee of the 1,2-propanediol product, as observed by chiral HPLC (lower number)” value in test [3] (neat propylene oxide, 0.55 equiv. H2O, 0.25 mol % catalyst, 3 h reaction time) is “+28 % ee”.

Source of the values: patent US20060263895A1, “Method for monitoring the stereoselectivity and relative rate of organic chemical reactions” (priority 2005, published 2006).
